Common to all, as to format: cell-based, human
Series [1] deals with U251 glioblastoma cells. The series is described as follows: Vacuolization of U251 cells by phase contrast and electron microscopy. As to conditions: 24 h; for vacuolization of endocytic compartments (accumulation of vacuoles): 10 μM MOPIPP or 1 μM vacuolin-1, phase contrast microscopy.
Series [2] deals with U251 glioblastoma cells. Description: RT-PCR analysis of miRNAs in cells and exosomes. As to conditions: for relative abundance of miR-21-5p in exosomal RNA: equal amounts of exosomal RNA, raw Ct values, three independent experiments. As to the method:
Prior to beginning studies, cells were seeded in 10 cm diameter culture dishes at 500,000 cells/dish and maintained for 24 h in DMEM supplemented with 10% Gibco™ exosome-depleted FBS (ThermoFisher Scientific, Waltham, Mass.). The medium was then replaced with fresh medium containing either 10 μM MOPIPP (synthesized as described in Trabbic et al., “Differential Induction of Cytoplasmic Vacuolization and Methuosis by Novel 2-Indolyl-Substituted Pyridinylpropenones, ACS Med. Chem. Lett., 5 (2014) 73-77) or 1 μM vacuolin-1 (Santa Cruz Biotechnology, Santa Cruz, Calif.) dissolved in DMSO. Control cultures contain an equivalent volume of the DMSO vehicle (0.1%) in the medium. After 24 h, the medium was collected from the dishes (typically 10-12 dishes per condition) and the attached cells were pooled and counted with a Coulter Counter (model Z1). Exosomes were isolated from medium using the Exo-Spin™ Exosome Purification system (Cell Guidance Systems, St. Louis, Mo.). The medium was pre-cleared by centrifugation at 4° C., first at 300×g for 10 min and then at 16,000×g for 30 min. Then a volume of Buffer A equal to half the volume of medium was added and the mixture was incubated overnight at 4° C. The precipitate, enriched with exosomes, was collected by centrifugation at 16,000×g for 1 h, and the pellet was re-suspended in […] Dulbecco's phosphate-buffered saline (PBS), pH 7.4. […]
Total RNA was extracted and purified from cultured cells or exosomes using QIAzol™ lysis reagent followed by RNAeasy Mini spin-columns, according to the manufacturer's protocol (SA Biosciences/Qiagen, Germantown, Md.). […] RNA and cDNA were quantified and checked for purity (OD 260/280) using a Nano-Drop-1000 spectrophotometer (ThermoFisher). […] For comparisons of the miRNA contents of exosomes collected from the medium of cells treated with MOPIPP, vacuolin-1 or vehicle (DMSO), individual miScript primers were purchased for six of the most highly expressed miRNAs detected in U251 cells (SA Biosciences/Qiagen). […]

In series [3] the test system is U251 glioblastoma cells. The series is described as follows: Cell counts, proliferation and viability of treated cultures (Coulter Counter). As to conditions: for cell attachment and proliferation despite vacuolization / growth inhibition (cell numbers versus DMSO control): U251 cells, 24 h; for cell attachment and proliferation despite vacuolization / cell proliferation and viability: 10 μM MOPIPP or 1 μM vacuolin-1; for growth inhibition (cell numbers versus DMSO control): 10 μM MOPIPP or 1 μM vacuolin-1, Coulter Counter; for cell proliferation and viability: U251 glioblastoma cells. On the procedure: U251 human glioblastoma cells were purchased from the DCT Tumor Repository (National Cancer Institute, Frederick, Md.). Stock cultures were maintained in Dulbecco's modified Eagle medium (DMEM) containing 10% (v/v) fetal bovine serum (FBS) (JR Scientific, Woodland, Calif.) at 37° C. with an atmosphere of 5% CO2 in air. Cultures were passaged for less than 6 months and were monitored periodically for Mycoplasma contamination.
(§1) Prior to beginning studies, cells were seeded in 10 cm diameter culture dishes at 500,000 cells/dish and maintained for 24 h in DMEM supplemented with 10% Gibco™ exosome-depleted FBS (ThermoFisher Scientific, Waltham, Mass.). The medium was then replaced with fresh medium containing either 10 μM MOPIPP (synthesized as described in Trabbic et al., “Differential Induction of Cytoplasmic Vacuolization and Methuosis by Novel 2-Indolyl-Substituted Pyridinylpropenones, ACS Med. Chem. Lett., 5 (2014) 73-77) or 1 μM vacuolin-1 (Santa Cruz Biotechnology, Santa Cruz, Calif.) dissolved in DMSO. Control cultures contain an equivalent volume of the DMSO vehicle (0.1%) in the medium. After 24 h, the medium was collected from the dishes (typically 10-12 dishes per condition) and the attached cells were pooled and counted with a Coulter Counter (model Z1). Exosomes were isolated from medium using the Exo-Spin™ Exosome Purification system (Cell Guidance Systems, St. Louis, Mo.). The medium was pre-cleared by centrifugation at 4° C., first at 300×g for 10 min and then at 16,000×g for 30 min. Then a volume of Buffer A equal to half the volume of medium was added and the mixture was incubated overnight at 4° C. The precipitate, enriched with exosomes, was collected by centrifugation at 16,000×g for 1 h, and the pellet was re-suspended in […] Dulbecco's phosphate-buffered saline (PBS), pH 7.4. The material was applied to an Exo-Spin column equilibrated with PBS, and the purified exosomes were eluted in 200 μl of PBS.

In series [4] the test system is U251 glioblastoma cells. Description: Immunoblot quantification of exosome marker proteins (CD63, Alix, LAMP-1) in purified exosomes and in cells. As to conditions: 10 μM MOPIPP or 1 μM vacuolin-1, western blot; for changes in expression of CD63, Alix and LAMP-1 in the corresponding cell populations: cell lysates, 24 h; for relative amounts of CD63, Alix and LAMP-1 in extracellular vesicle preparations versus control: exosomes from 24 h conditioned medium. As to the method: as §1
The cells in the dishes used for collection of exosomes were washed three times with PBS and lysed in SDS sample buffer (Laemmli, “Cleavage of structural proteins during the assembly of the head of bacteriophage T4, Nature, 227 (1970) 680-685). The protein concentration was determined by colorimetric assay using Bio-Rad reagent (Bio-Rad, Richmond, Calif.). Samples containing equal amounts of total cell protein were subjected to SDS-PAGE and immunoblot analysis (as described in Maltese et al., “Retention of the Alzheimer's amyloid precursor fragment C99 in the endoplasmic reticulum prevents formation of amyloid beta-peptide, J. Biol. Chem., 276 (2001) 20267-20279). For analysis of proteins in exosomes, equal volumes of purified exosomes isolated from control or treated cells were mixed with ⅕ volume of 5×SDS sample buffer prior to SDS-PAGE. Monoclonal antibodies against CD63 and LAMP-1 were obtained from the Developmental Studies Hybridoma Bank (Iowa City, Iowa). […] Chemiluminescent signals on the membranes were quantified using an Alpha Innotech FluorChem HD2 imaging system with Alpha View software.
Background: A western blot detects proteins with antibodies after separation by electrophoresis.

In the case of `CCCc1[nH]c2ccc(OC)cc2c1C=CC(=O)c1ccncc1` [MOPIPP, 3-(5-methoxy-2-propyl-1H-indol-3-yl)-1-(4-pyridinyl)-2-propen-1-one], the “vacuolization of endocytic compartments (accumulation of vacuoles)” value in the series with U251 glioblastoma cells [1] is on record as “resulted in vacuolization of endocytic compartments”. Further, the “subpopulation of vacuoles containing clusters of heterogeneous vesicles (ILV/exosome size)” value in the series on U251 glioblastoma cells [1] (10 μM MOPIPP, electron microscopy) was 20-30%. For the same compound, the “cellular expression of 13 selected miRNAs” value with U251 glioblastoma cells [2] (U251 cells, 24 h, 10 μM MOPIPP versus DMSO, RT-PCR) is given as “did not cause major changes”. For the same compound, the “relative abundance of miR-21-5p in exosomal RNA” value with U251 glioblastoma cells [2] was “no observations of any changes”. In the series with U251 glioblastoma cells [3], the “cell attachment and proliferation despite vacuolization” value is “remained attached to the culture dishes and continued to proliferate”; the “growth inhibition (cell numbers versus DMSO control)” value is on record as “lack of growth inhibition”; the “cell proliferation and viability” value is “not markedly impaired”. In the series with U251 glioblastoma cells [4], the “changes in expression of CD63, Alix and LAMP-1 in the corresponding cell populations” value is “comparatively modest”; the “relative amounts of CD63, Alix and LAMP-1 in extracellular vesicle preparations versus control” value is “increased by several fold”.
For `Ic1cccc(/C=N/Nc2nc(N3CCOCC3)nc(N(c3ccccc3)c3ccccc3)n2)c1` [vacuolin-1, reference compound], the “vacuolization of endocytic compartments (accumulation of vacuoles)” value in the series on U251 glioblastoma cells [1] was “induced a very similar phenotype”. Also, the “relative abundance of miR-21-5p in exosomal RNA” value with U251 glioblastoma cells [2] is reported as “no observations of any changes”. Moreover, in the series on U251 glioblastoma cells [3], the “cell attachment and proliferation despite vacuolization” value was “remained attached to the culture dishes and continued to proliferate”; the “growth inhibition (cell numbers versus DMSO control)” value is “lack of growth inhibition”; the “cell proliferation and viability” value is on record as “not markedly impaired”. In the series on U251 glioblastoma cells [4], the “changes in expression of CD63, Alix and LAMP-1 in the corresponding cell populations” value is “comparatively modest”; the “relative amounts of CD63, Alix and LAMP-1 in extracellular vesicle preparations versus control” value is listed as “An even greater increase”.
